According to the supplement of paper PMC10307832:

What was measured:
Experiment in all cases: relative viability (nuclei count vs DMSO), 5 days (fraction); higher = more cells survive
NCI-H727 = system: NCI-H727
How it was run: (§1)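 Nuclei were stained with Hoechst during a one-step fixation (final 0.05% Triton X-100, 1% formaldehyde, 1 ug/ml Hoechst) carried out 5 days after dosing, then counted on 4× images. The cells, lung cancer lines in 1536-well plates, had been dosed by pin tool the day after seeding with one drug alone or a fixed anchor-drug dose plus five library-drug doses (not always all listed) in √10 steps. Relative viability is the nuclei count in treated wells divided by that in vehicle wells, and each value is the median of duplicate plates.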

NCI-H522 = system: NCI-H522
How it was run: as §1

NCI-H647 = system: NCI-H647
How it was run: as §1

EPLC-272H = system: EPLC-272H
How it was run: as §1

NCI-H838 = system: NCI-H838
How it was run: as §1

NCI-H1792 = system: NCI-H1792
How it was run: as §1

EKVX = system: EKVX
How it was run: as §1

NCI-H1651 = system: NCI-H1651
How it was run: as §1

NCI-H2087 = system: NCI-H2087
How it was run: as §1

NCI-H1437 = system: NCI-H1437
How it was run: as §1

ABC-1 = system: ABC-1
How it was run: as §1

LCLC-103H = system: LCLC-103H
How it was run: as §1

HCC-44 = system: HCC-44
How it was run: as §1

H3255 = system: H3255
How it was run: as §1

201T = system: 201T
How it was run: as §1

NCI-H358 = system: NCI-H358
How it was run: as §1

HCC-15 = system: HCC-15
How it was run: as §1

NCI-H1975 = system: NCI-H1975
How it was run: as §1

HCC-827 = system: HCC-827
How it was run: as §1

CCCCCCCCCCCC1=C(O)C(=O)C=C(O)C1=O [Embelin] + NC(=O)Nc1cc(-c2cccc(F)c2)sc1C(=O)N[C@H]1CCCNC1 [AZD7762] (partner 0.2 µM)
relative viability (NCI-H727; first compound 0.08 µM): 0.533
relative viability (NCI-H727; first compound 0.8 µM): 0.503
relative viability (NCI-H727; first compound 2.53 µM): 0.647
relative viability (NCI-H727; first compound 8 µM): 0.582
relative viability (NCI-H522; first compound 0.08 µM): 0.865
relative viability (NCI-H522; first compound 0.8 µM): 1.05
relative viability (NCI-H522; first compound 2.53 µM): 0.91
relative viability (NCI-H522; first compound 8 µM): 0.756
relative viability (NCI-H647; first compound 0.08 µM): 0.379
relative viability (NCI-H647; first compound 0.8 µM): 0.674
relative viability (NCI-H647; first compound 2.53 µM): 0.365
relative viability (NCI-H647; first compound 8 µM): 0.309
relative viability (EPLC-272H; first compound 0.08 µM): 0.181
relative viability (EPLC-272H; first compound 0.8 µM): 0.296
relative viability (EPLC-272H; first compound 2.53 µM): 0.21
relative viability (EPLC-272H; first compound 8 µM): 0.188
relative viability (NCI-H838; first compound 0.08 µM): 0.946
relative viability (NCI-H838; first compound 0.8 µM): 1.05
relative viability (NCI-H838; first compound 2.53 µM): 0.912
relative viability (NCI-H838; first compound 8 µM): 0.992
relative viability (NCI-H1792; first compound 0.08 µM): 0.853
relative viability (NCI-H1792; first compound 0.8 µM): 0.849
relative viability (NCI-H1792; first compound 2.53 µM): 0.814
relative viability (NCI-H1792; first compound 8 µM): 0.547
relative viability (EKVX; first compound 0.08 µM): 0.698
relative viability (EKVX; first compound 0.8 µM): 0.748
relative viability (EKVX; first compound 2.53 µM): 0.662
relative viability (EKVX; first compound 8 µM): 0.749
relative viability (NCI-H1651; first compound 0.08 µM): 0.452
relative viability (NCI-H1651; first compound 0.8 µM): 0.549
relative viability (NCI-H1651; first compound 2.53 µM): 0.527
relative viability (NCI-H1651; first compound 8 µM): 0.46
relative viability (NCI-H2087; first compound 0.08 µM): 1.34
relative viability (NCI-H2087; first compound 0.8 µM): 1.37
relative viability (NCI-H2087; first compound 2.53 µM): 1.2
relative viability (NCI-H2087; first compound 8 µM): 1.28
relative viability (NCI-H1437; first compound 0.08 µM): 1.15
relative viability (NCI-H1437; first compound 0.8 µM): 1.16
relative viability (NCI-H1437; first compound 2.53 µM): 1.15
relative viability (NCI-H1437; first compound 8 µM): 1.2
relative viability (ABC-1; first compound 0.08 µM): 0.701
relative viability (ABC-1; first compound 0.8 µM): 1.01
relative viability (ABC-1; first compound 2.53 µM): 0.875
relative viability (ABC-1; first compound 8 µM): 0.856
relative viability (LCLC-103H; first compound 0.08 µM): 0.79
relative viability (LCLC-103H; first compound 0.8 µM): 0.866
relative viability (LCLC-103H; first compound 2.53 µM): 0.886
relative viability (LCLC-103H; first compound 8 µM): 0.684
relative viability (HCC-44; first compound 0.08 µM): 1.07
relative viability (HCC-44; first compound 0.8 µM): 0.994
relative viability (HCC-44; first compound 2.53 µM): 0.999
relative viability (HCC-44; first compound 8 µM): 1.11
relative viability (H3255; first compound 0.08 µM): 0.826
relative viability (H3255; first compound 0.8 µM): 0.975
relative viability (H3255; first compound 2.53 µM): 0.894
relative viability (H3255; first compound 8 µM): 0.913
relative viability (201T; first compound 0.08 µM): 0.713
relative viability (201T; first compound 0.8 µM): 0.634
relative viability (201T; first compound 2.53 µM): 0.67
relative viability (201T; first compound 8 µM): 0.61
relative viability (NCI-H358; first compound 0.08 µM): 0.604
relative viability (NCI-H358; first compound 0.8 µM): 0.739
relative viability (NCI-H358; first compound 2.53 µM): 0.517
relative viability (NCI-H358; first compound 8 µM): 0.491
relative viability (HCC-15; first compound 0.08 µM): 1.14
relative viability (HCC-15; first compound 0.8 µM): 1.15
relative viability (HCC-15; first compound 2.53 µM): 1.46
relative viability (HCC-15; first compound 8 µM): 1.41
relative viability (NCI-H1975; first compound 0.08 µM): 0.708
relative viability (NCI-H1975; first compound 0.8 µM): 0.753
relative viability (NCI-H1975; first compound 2.53 µM): 0.806
relative viability (NCI-H1975; first compound 8 µM): 0.703
relative viability (HCC-827; first compound 0.08 µM): 0.191
relative viability (HCC-827; first compound 0.8 µM): 0.21
relative viability (HCC-827; first compound 2.53 µM): 0.193
relative viability (HCC-827; first compound 8 µM): 0.278
